Results on two compounds are retold here after patent US12290510B2, “Polyvalent derivatives of emoxypine” (Riesner Verwaltungs GMBH, priority 2019, dated 2025).

Where “and” joins values, the source holds several entries; their conditions need not be identical. Equal entries are not always repeated.

In assay [1] the target is T1, α-synuclein fibrils (Homo sapiens, UniProt P37840). In words: Disaggregation of α-synuclein fibrils, thioflavin T (ThT) fluorescence emission at 482 nm. It counts as biochemical. How it is done: FIG. 1A depicts emission intensity of ThT at 482 nm (λexc=450 nm), in the presence of α-synuclein amyloids fibrils, with and without MHP-tren triimine (r70, light blue trace and yellow trace, respectively) from 1 minute to 3 days (72 h), where the bars from left to right in each set of histograms represents: control ThT; MHP tren-triimine; Aggregates+ThT+MHP tren-triimine; control ThT+MHP tren-triimine; and Aggregates+ThT, respectively.
FIG. 2 depicts emission intensity of ThT at 482 nm (λexc=450 nm), in the presence of α-synuclein amyloids fibrils, using Emoxypine r200, Emoxypine r100, MHP-tren triimine (also known as tri imino-emoxypine) r70 (light blue trace and yellow trace, respectively) from 1 minute to 3 days (72 h), where the bars from left to right in each set of histograms represents: α-synuclein+Emoxypine r200; α-synuclein+Emoxypine r100; and α-synuclein+MHP tren-triimine r70, respectively. The far leftmost bar of the graph, titled “Before addition of SOM” represents a sample without emoxypine or MHP tren-triimine, i.e. with 100% of α-synuclein aggregates left.
Disaggregation of α-synuclein fibrils using MHP-tren triimine (i.e., tri imino-emoxypine) was studied. The ratio of MHP-tren triimine:α-synuclein was 70 (r70).
Fluorescence measurements were performed by comparing the emission of thiovlavin T (ThT) in the presence of aggregates, without and with MHP-tren triimine at different times after the addition of MHP-tren triimine, from one minute to several days (λ emission of interest=482 nm, λ excitation=450 nm). Fluorescent measurements were also performed by comparing the emission of thiovlavin T (ThT) in the presence of aggregates and either emoxypine or MHP-tren triimine. The results (see, FIG. 1A-1B, FIG. 2 and Tables 1-2, below) show higher solubilization percentages using MHP-tren triimine as compared to emoxypine. […] The long-term efficiency of the triimine molecule is therefore better than that of its triamide analogue.

Assay [2] has as its target T1, α-synuclein fibrils. In words: Scanning electron microscope (SEM) images of α-synuclein fibrils without and with the triimine. The conditions noted are these: sample with the triimine molecule (FIG. 3B) vs “superaggregated” structures without (FIG. 3A).

`Cc1ccc(O)c(/C=N/CCN(CC/N=C/c2nc(C)ccc2O)CC/N=C/c2nc(C)ccc2O)n1` [MHP-tren triimine, tri imino-emoxypine]: the Percentage of solubilization on α-synuclein fibrils [1] (MHP-tren triimine:α-synuclein ratio 70 (r70), 1 min after addition) was 27%; at α-synuclein fibrils [1] (r70, 30 min after addition) it was 47.1% and 57%; on α-synuclein fibrils [1] (r70, 1 h after addition), 71%; on α-synuclein fibrils [1] (r70, 24 h after addition), 72.8% and 73%; at α-synuclein fibrils [1] (r70, 48 h after addition) it was 79.5% and 79%; on α-synuclein fibrils [1] (r70, 72 h (3 days) after addition) it was 86% and 86.1%. Moreover, the “Appearance of α-synuclein sample in SEM images” value on α-synuclein fibrils [2] is listed as “no apparent fiber or big aggregates-only small dots are visible”.
Take `CCc1nc(C)ccc1O` [Emoxypine, emoxypine]: the “Percent of Solubilization” value at α-synuclein fibrils [1] (r100, 1 min) was 50%; on α-synuclein fibrils [1] (r100, 30 min) it was 59%; at α-synuclein fibrils [1] (r100, 1 h), 48%; at α-synuclein fibrils [1] (r100, 24 h), 53%; on α-synuclein fibrils [1] (r100, 48 h), 49%; on α-synuclein fibrils [1] (r100, 72 h), 62%. Further, the “Percent of Solubilization” value at α-synuclein fibrils [1] (r200, 1 min) is recorded as 69%; at α-synuclein fibrils [1] (r200, 30 min) it was 65%; on α-synuclein fibrils [1] (r200, 1 h), 61%; at α-synuclein fibrils [1] (r200, 24 h), 60%; at α-synuclein fibrils [1] (r200, 48 h), 61%; at α-synuclein fibrils [1] (r200, 72 h) it was 63%.
